The record followed here is patent US20110312992A1, “Inhibitors of C-Kit and Uses Thereof” (priority 2006, published 2011).

Structures can show the parent of a compound that is named as a salt.

The subject of one experiment is OCIM2. Briefly: MTT-based cell proliferation/toxicity assay, OCIM2. The arrangement: species or system human. From the text:
(§1) An MTT- (3,(4,5-dimethylthiazol-2-yl)-5-(3-carboxymethoxyphenyl)-2-(4-sulfophenyl)-2H-tetrazolium) based cell proliferation/toxicity assay system (Promega, Madison, Wis.) using cell lines, including the AML cell lines OCIM2 and OCI/AML3, was used to evaluate the effectiveness of the compounds as set forth herein in inhibition of c-Kit cellular activity.
(§2) AML cell lines OCIM2 and OCI/AML3 are human erythroleukemia lines and were provided by M. D. Minden, (Ontario Cancer Institute, Toronto, ON, Canada and as referenced in: Papayannopoulou et al., Blood (1988) 72:1029-1038; Wang et al., Leukemia (1989) 3: 236-249). Cells were maintained in RPMI 1640 culture medium (GIBCO, Grand Island, N.Y.) supplemented with 10% FCS (Flow Laboratories, McLean, Va.) and split twice weekly.
(§3) Briefly, cells were harvested at the logarithmic phase of their growth. They were then washed twice in RPMI 1640 containing 10% FCS and counted in a hemocytometer, and their viability was determined using 0.1% trypan blue staining. Equal numbers of viable cells (5×10^4 cells per well) were incubated in RPMI 1640 medium supplemented with 10% FCS alone or with the candidate drugs at increasing concentrations; the incubations were continued for 72 h in 96-well flat-bottomed plates (Linbro; Flow Laboratories, McLean, Va.) at 37° C. in a humidified 5% CO2 atmosphere. After incubation, 20 μl of CellTiter96 One Solution Reagent (Promega) was added to each well. The plates were then incubated for an additional 60 min at 37° C. in a humidified 5% CO2 atmosphere. Immediately after incubation, absorbance was read using a 96-well plate reader at a wavelength of 490 nm. Each data point was determined six times before analysis.
(§4) While OCIM2 and OCI/AML3 are both AML cell lines, c-Kit is expressed to a much higher degree in the OCI/AML3 line versus OCIM2, as determined by the responsiveness to stem cell factor (SCF), which mediates c-Kit receptor dimerization, activation, and autophosphorylation (Blume-Jensen, et al., (1991) EMBO Journal 10, 4121-8).

For experiment [1], the system named is OCI/AML3. Briefly: MTT-based cell proliferation/toxicity assay, OCI/AML3. The settings on record: for ability to reduce cell line (dose response): OCI/AML3, FIG. 25. Details: species or system human.
From the text: as §1, §2, §3, §4

For another experiment, the target named is c-Kit (Homo sapiens, UniProt P10721). Briefly: c-Kit kinase enzymatic assay (tyrosine phosphorylation, UpState protocol). The class given is biochemical. The note with it: FIG. 5. As for the experimental part: IC50 values were determined for compounds of Examples 1, 10, 12 and 13 using a c-Kit kinase enzymatic assay. Phosphorylation of tyrosine was measured using a kinase assay protocol as provided by UpState Cell Signaling Solutions (Lake Placid, N.Y.). […] The results of the kinase assays validate the modeling and assessment of the structure/activity relationship data.

The nature of experiment [2]: Inhibition of cell proliferation in the absence and presence of SCF (FIG. 22). It counts as cell-based. The settings on record: absence vs presence of externally introduced SCF.
Another experiment concerns HCM1.2 cell line. As to the kind of experiment: Systemic mastocytosis cell line with mutated c-Kit (position 816). It counts as cell-based. The settings on record: HCM1.2 (mutated c-Kit, position 816) vs HCM1.1 (wild-type), FIG. 12 and 13. As for the experimental part: The effect of compound 1-[3-(4-fluoro)-1H-pyrazolo[3,4-b]pyridin-6-yl]-3,5-dimethoxy]benzene on two systemic mastocytosis cell lines with unmutated (wild-type) c-Kit (HCM1.1 cell line) and a cell line with mutated c-Kit (mutation at position 816) (HCM1.2 cell line) was also determined. Cell lines were obtained from Dr. Verstovsek (Leuk Res. 2006 Jun. 22, online prepublication).

In another experiment the test system is AML5. Briefly: Inhibition of cell proliferation of AML1-AML6 in the presence of SCF. It counts as cell-based. The settings on record: AML5 among AML1-AML6, in the presence of SCF, FIG. 23.
In experiment [3] the test system is OCI/AML3. Briefly: Colony-forming cell proliferation, OCI/AML3. It counts as cell-based, human. The settings on record: OCI/AML3, FIG. 18.
Experiment [4] has as its system OCI/AML3. Briefly: Cell cycle analysis in OCI/AML3. The class given is cell-based, human. The settings on record: OCI/AML3, FIG. 15.

A word on the IC50: it is the midpoint of a concentration-inhibition curve. What is called EC50 is the midpoint of the concentration-response curve.

c-Kit, sequence (P10721 26-976): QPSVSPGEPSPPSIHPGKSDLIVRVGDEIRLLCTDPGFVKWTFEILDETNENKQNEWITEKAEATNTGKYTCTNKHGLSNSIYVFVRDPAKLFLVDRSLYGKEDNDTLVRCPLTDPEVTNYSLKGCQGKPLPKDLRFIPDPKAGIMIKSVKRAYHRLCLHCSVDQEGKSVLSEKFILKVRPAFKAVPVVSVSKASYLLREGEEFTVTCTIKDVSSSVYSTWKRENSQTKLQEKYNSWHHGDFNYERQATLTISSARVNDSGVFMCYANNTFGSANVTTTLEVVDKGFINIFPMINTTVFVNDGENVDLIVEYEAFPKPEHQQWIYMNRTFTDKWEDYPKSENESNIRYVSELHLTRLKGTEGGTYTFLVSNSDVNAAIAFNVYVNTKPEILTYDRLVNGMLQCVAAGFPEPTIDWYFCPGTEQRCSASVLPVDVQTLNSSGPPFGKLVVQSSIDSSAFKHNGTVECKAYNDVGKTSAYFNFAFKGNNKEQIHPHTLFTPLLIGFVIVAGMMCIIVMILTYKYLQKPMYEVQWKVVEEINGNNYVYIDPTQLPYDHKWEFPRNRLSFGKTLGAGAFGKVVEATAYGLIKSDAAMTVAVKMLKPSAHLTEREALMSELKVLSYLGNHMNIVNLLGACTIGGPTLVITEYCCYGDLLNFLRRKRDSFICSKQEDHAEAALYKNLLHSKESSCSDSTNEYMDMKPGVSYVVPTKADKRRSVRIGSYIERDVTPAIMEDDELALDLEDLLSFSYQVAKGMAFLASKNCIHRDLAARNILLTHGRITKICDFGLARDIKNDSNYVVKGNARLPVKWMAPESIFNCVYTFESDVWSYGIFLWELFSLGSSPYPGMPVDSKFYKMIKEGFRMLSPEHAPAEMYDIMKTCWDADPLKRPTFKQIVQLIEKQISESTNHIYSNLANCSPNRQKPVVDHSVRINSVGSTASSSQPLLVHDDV

As for `Cc1ccc(NC(=O)c2ccc(CN3CCN(C)CC3)cc2)cc1Nc1nccc(-c2cccnc2)n1` [imatinib mesylate, reference compound], the “response of cell line to prior art compound” value is on record as “resistant” in the experiment with OCIM2 (OCIM2 uninduced, FIG. 10) and “resistant” in the experiment on OCI/AML3 [1] (OCI-AML3 expressing c-Kit, FIG. 6 / FIG. 10).

Turning to `COc1ccc(-c2n[nH]c3nc(-c4cc(OC)cc(OC)c4)ccc23)cc1` [Example 12], the IC50 on c-Kit is approximately 1.2 µM. The “ability to reduce cell line (dose response)” value (shortened to “ability to reduce cell line”) in the experiment with OCI/AML3 [1] is reported as “same effective ability to reduce OCI/AML3 cell line”.

In turn, `CCOC(=O)c1ccc(-c2n[nH]c3nc(-c4ccc(C(=O)NCCN(C)C)cc4)ccc23)cc1` [Example 13] showed an IC50 against c-Kit of approximately 3.6 µM. Besides, the “ability to reduce cell line” value in the experiment with OCI/AML3 [1] is “same effective ability to reduce OCI/AML3 cell line”.

`COc1cc(OC)cc(-c2ccc3c(-c4ccc(F)cc4)n[nH]c3n2)c1` [Example 10] displayed an IC50 against c-Kit of more than 100 µM. Besides, in experiment [2], the “effect of SCF on inhibition of cell proliferation” value was “enhanced by the presence of externally introduced SCF”. For the same compound, in the experiment on HCM1.2 cell line, the “selectivity between mastocytosis cell lines” value was “selectivity for the cell line containing mutated c-Kit”. Besides, the “inhibition of cell proliferation” value with AML5 was “less effective inhibition”. The sensitivity of proliferation entry in the experiment on OCIM2 (OCIM2, FIG. 16) was “less sensitive”; in the experiment on OCI/AML3 [1] (OCI/AML3, FIG. 16), “quite sensitive”. The “proliferation of SCF-stimulated cells” value in the experiment on OCIM2 (OCIM2 with and without 50 ng/mL SCF, FIG. 9) is reported as “inhibiting the proliferation”. Besides, in the experiment with OCI/AML3 [3], the colony-forming cell proliferation entry is given as “inhibits”. Besides, in the experiment with OCI/AML3 [4], the cell cycle effect result is reported as “causes the accumulation of OCI/AML3 in Sub-G0 phase”. Also, the “comparison with BMS-354825 and Gleevec” value in the experiment on OCI/AML3 [1] (percent of control, FIG. 24) was “favorable comparison”.

On c-Kit, `COc1ccc(-c2n[nH]c3nc(-c4cccc(NC(C)=O)c4)ccc23)cc1` [Example 1, 3-{(4-Methyloxyphenyl)-1H-pyrazolo[4,3-b]pyridin-6-yl}acetanilide] showed a half-inhibitory concentration (IC50) of approximately 0.095 µM. In the experiment on OCI/AML3 [1] (Homo sapiens, OCI-AML-3, cell viability, OCI/AML3, 72 h, FIG. 6), this compound displayed an EC50 of approximately 0.1 µM. Besides, in the experiment with OCI/AML3 [1], the “ability to reduce cell line” value is “same effective ability to reduce OCI/AML3 cell line”.

On to `CC(=O)Nc1cccc(-c2ccc3c(-c4ccc(F)cc4)n[nH]c3n2)c1` [Example 3, 3-[3-(4-Fluorophenyl)-1H-pyrazolo[3,4-b]pyridin-6-yl]acetanilide], for which the “ability to reduce cell line” value with OCI/AML3 [1] is on record as “same effective ability to reduce OCI/AML3 cell line”.
